In one experiment the target is T1, Human P2Y12 receptor (Homo sapiens, UniProt Q9H244).
T1 construct: expressed in transfected cells; host or cells: HEK cells
Kind of experiment: Human P2Y12 receptor cell membrane binding assay with [3H] 2-Mes-ADP. The settings on record: 1 nM [3H] 2-Mes-ADP; for IC50: membranes of HEK cells expressing P2Y12 receptor, read-out: Binding activity (IC50). On the procedure: Human P2Y12 Receptor Cell Membrane Binding Assay with [^3H] 2-Mes-ADP
Whether test compounds bind to P2Y12 receptor is measured by [3H]-2MesADP binding in HEK cells expressing P2Y12 receptor. The efficacy according to the amount of test compound can be known through the above test, competitive binding test to P2Y12 receptor, in which the binding material (2-Mes-ADP) is labeled with radioactivity isotope and then the extent of inhibition against the binding of radioactively labeled material is measured.
Preparation of P2Y12 Membrane Protein Fraction
Harvested P2Y12 cells were resuspended with Hypotonic buffer (10 mM HEPES, 10 mM NaCl, 1 mM EDTA, 1 mM EGTA pH 7.4) containing protease inhibitor cocktail. Following the incubation on ice for 15 min, cells were homogenized on ice (Glass/Teflon homogenizer; 1,000 rpm, 10 strokes). The supernant was taken from centrifugation at 500×g for 15 min and then recentrifuged the supernant at 30,000 rpm for 30 min. The membrane pellet was adjusted to 1 mg/mL concentration and stored at −80° C.
P2Y12 Receptor Cell Membrane Binding Assay with [3H] 2-Mes-ADP
The volume of 100 μL of 200 μg membrane protein was aliquoted into 96 well plate. 50 μL volume of test compounds and [^3H] 2-Mes-ADP (final: 1 nM) were added into each well. The total reaction of 0.2 ml/well was incubated for 1 hour at R.T. The reaction was terminated by filtration through GF/B filter using a 96-well cell harvester. […] Radioactivity bound to P2Y12 receptor membrane was counted in a scintillation counter. Total binding was determined with CPM of test group having no compound and non-specific binding was determined with CPM of test group containing 10 μM 2-Mes-ADP. Binding inhibition percent was calculated as follows: [100−(specific binding in the presence of test material/specific binding in the absence of test material×100)].

Experiment [1] concerns Human platelet aggregation caused by ADP. Nature of the experiment: Inhibition of ADP-induced platelet aggregation (Mimic-human PRP). Format: cell-based. The settings on record: 20 μM ADP, human platelet concentrate diluted with PPP, absorption at 595 nm. Summed up: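 Human PRP diluted with PPP to 3–4×10^8 platelets/mL was preincubated 20 min at room temperature with compound (0.01–30 μM, DMSO), then stimulated with 20 μM ADP. Aggregation read as A595 increase at 3 min versus 0 and 20 μM ADP controls; Ki from sigmoidal non-linear regression.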

A value given as a limit tells only on which side of the number the result lay.

The term IC50 denotes the concentration needed to halve the response being measured. The inhibition is the relative decrease from the control value, in per cent. Higher therefore signals a response far below the control. In general, Ki refers to a dissociation constant, usually derived from enzyme kinetics or from competition with a known ligand.

T1 sequence (Q9H244 whole entry): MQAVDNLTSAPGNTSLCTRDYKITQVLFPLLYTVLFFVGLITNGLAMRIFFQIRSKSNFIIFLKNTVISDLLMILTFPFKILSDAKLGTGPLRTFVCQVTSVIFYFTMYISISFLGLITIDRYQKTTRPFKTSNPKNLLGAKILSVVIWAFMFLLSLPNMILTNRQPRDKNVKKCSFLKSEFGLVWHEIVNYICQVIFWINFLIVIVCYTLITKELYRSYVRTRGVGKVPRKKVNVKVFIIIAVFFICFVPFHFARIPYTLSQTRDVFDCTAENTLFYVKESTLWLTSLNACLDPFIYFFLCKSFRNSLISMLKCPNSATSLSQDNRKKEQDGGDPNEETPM

Turning to `CCCc1cc2c(N3CCn4c(nnc4C(F)(F)F)C3)nc(NCC(O)CO)nc2s1` (stereo not drawn) [Example 1-2, 3-[6-Propyl-4-(3-trifluoromethyl-5,6-dihydro-8H-[1,2,4]triazolo[4,3-a]pyrazin-7-yl)-thieno[2,3-d]pyrimidin-2-ylamino]-propane-1,2-diol], the IC50 on Human P2Y12 receptor was found to be 160 nM.
The same measure, in the same setting: the result for `CCCc1cc2c(N3CCn4c(nnc4C(F)(F)F)C3)nc(N3CCc4[nH]ncc4C3)nc2s1` [Example 1-76, 7-[6-Propyl-2-(1,4,6,7-tetrahydro-pyrazolo[4,3-c]pyridin-5-yl)-thieno[2,3-d]pyrimidin-4-yl]-3-trifluoromethyl-5,6,7,8-tetrahydro-[1,2,4]triazolo[4,3-a]pyrazine] reads 28 nM.
On to `CCCc1cc2c(N3CCn4c(nnc4C(F)(F)F)C3)nc(N3CCc4c(nc(C)nc4C(F)(F)F)C3)nc2s1` [Example 1-80, 2-Methyl-7-[6-propyl-4-(3-trifluoromethyl-5,6-dihydro-8H-[1,2,4]triazolo[4,3-a]pyrazin-7-yl)-thieno[2,3-d]pyrimidin-2-yl]-4-trifluoromethyl-5,6,7,8-tetrahydro-pyrido[3,4-d]pyrimidine], for which the IC50 at Human P2Y12 receptor worked out at 43 nM.
Same read-out and setting: the result for `CCCc1cc2c(N3CCn4c(nnc4C(F)(F)F)C3)nc(Nc3nc(C(=O)OCC)cs3)nc2s1` [Example 1-131, 2-[6-Propyl-4-(3-trifluoromethyl-5,6-dihydro-8H-[1,2,4]triazolo[4,3-a]pyrazin-7-yl)thieno[2,3-d]pyrimidin-2-ylamino]thiazole-4-carboxylic acid ethyl ester] reads 1930 nM.
On the same count and under the same terms, the result for `Cc1cc2c(N3CCn4c(nnc4C(F)(F)F)C3)nc(N3CCNC(=O)C3)nc2s1` [Example 2-1, 4-[6-Methyl-4-(3-trifluoromethyl-5,6-dihydro-8H-[1,2,4]triazolo[4,3-a]pyrazin-7-yl)-thieno[2,3-d]pyrimidin-2-yl]-piperazin-2-one] reads 1100 nM.
Same read-out and setting: the result for `CCc1cc2c(N3CCn4c(nnc4C(F)(F)F)C3)nc(NCC(O)CO)nc2s1` (stereo not drawn) [Example 2-3, 3-[6-Ethyl-4-(3-trifluoromethyl-5,6-dihydro-8H-[1,2,4]triazolo[4,3-a]pyrazin-7-yl)-thieno[2,3-d]pyrimidin-2-ylamino]-propane-1,2-diol] reads 847 nM.
For `CCc1cc2c(N3CCn4c(nnc4C(F)(F)F)C3)nc(N[C@@H]3C[C@H](OCCO)[C@@H](O)[C@H]3O)nc2s1` [Example 2-4, (1S,2S,3R,5S)-3-[6-Ethyl-4-(3-trifluoromethyl-5,6-dihydro-8H-[1,2,4]triazolo[4,3-a]pyrazin-7-yl)-thieno[2,3-d]pyrimidin-2-ylamino]-5-(2-hydroxy-ethoxy)-cyclopentane-1,2-diol], the IC50 at Human P2Y12 receptor turned out to be 8920 nM.
Same read-out and setting: the result for `CCc1cc2c(N3CCn4c(nnc4C(F)(F)F)C3)nc(NCCN)nc2s1` [Example 2-8, N*1*-[6-Ethyl-4-(3-trifluoromethyl-5,6-dihydro-8H-[1,2,4]triazolo[4,3-a]pyrazin-7-yl)-thieno[2,3-d]pyrimidin-2-yl]-ethane-1,2-diamine] reads 2280 nM; that for `CCc1cc2c(N3CCn4c(nnc4C(F)(F)F)C3)nc(NCC(=O)O)nc2s1` [Example 2-9, [6-Ethyl-4-(3-trifluoromethyl-5,6-dihydro-8H-[1,2,4]triazolo[4,3-a]pyrazin-7-yl)-thieno[2,3-d]pyrimidin-2-ylamino]-acetic acid], 2170 nM; that for `CC(C)c1cc2c(N3CCn4c(nnc4C(F)(F)F)C3)nc(NCCO)nc2s1` [Example 2-11, 2-[6-Isopropyl-4-(3-trifluoromethyl-5,6-dihydro-8H-[1,2,4]triazolo[4,3-a]pyrazin-7-yl)-thieno[2,3-d]pyrimidin-2-ylamino]-ethanol], 1820 nM.
Still for that read-out and setting: the result for `CC(C)c1cc2c(N3CCn4c(nnc4C(F)(F)F)C3)nc(N3CCN(C)CC3)nc2s1` [Example 2-13, 7-[6-Isopropyl-2-(4-methyl-piperazin-1-yl)-thieno[2,3-d]pyrimidin-4-yl]-3-trifluoromethyl-5,6,7,8-tetrahydro-[1,2,4]triazolo[4,3-a]pyrazine] reads 1100 nM; that for `CCCc1cc2c(N3CCn4c(nnc4C(F)(F)F)C3)nc(OC3Cc4ccccc4C3)nc2s1` [Example 3-22, 7-[2-(Indan-2-yloxy)-6-propyl-thieno[2,3-d]pyrimidin-4-yl]-3-trifluoromethyl-5,6,7,8-tetrahydro-[1,2,4]triazolo[4,3-a]pyrazine], 130 nM; that for `CCc1cc2c(N3CCn4c(nnc4C(F)(F)F)C3)nc(OCC(O)CO)nc2s1` (stereo not drawn) [Example 3-49, 3-[6-Ethyl-4-(3-trifluoromethyl-5,6-dihydro-8H-[1,2,4]triazolo[4,3-a]pyrazin-7-yl)-thieno[2,3-d]pyrimidin-2-yloxy]-propane-1,2-diol], 406 nM.
`CCCc1cc2c(N3CCn4c(nnc4C(F)(F)F)C3)nc(Sc3ccccc3)nc2s1` [Example 3-52, 7-(2-Phenylsulfanyl-6-propyl-thieno[2,3-d]pyrimidin-4-yl)-3-trifluoromethyl-5,6,7,8-tetrahydro-[1,2,4]triazolo[4,3-a]pyrazine]: testing at 30 µM on Human P2Y12 receptor (30 μM compound) gave an inhibition of 20%.
For `CCCc1cc2c(N3CCn4c(nnc4C(F)(F)F)C3)nc(C(=O)OCC)nc2s1` [Example 4-1, 6-Propyl-4-(3-trifluoromethyl-5,6-dihydro-8H-[1,2,4]triazolo[4,3-a]pyrazin-7-yl)thieno[2,3-d]pyrimidine-2-carboxylic acid ethyl ester], the half-maximal inhibitory concentration (IC50) at Human P2Y12 receptor was determined as 240 nM.
The same measure, in the same setting: the result for `CCCc1cc2c(N3CCn4c(nnc4C(F)(F)F)C3)nc(C(=O)O)nc2s1` [Example 4-2, 6-Propyl-4-(3-trifluoromethyl-5,6-dihydro-8H-[1,2,4]triazolo[4,3-a]pyrazin-7-yl)-thieno[2,3-d]pyrimidine-2-carboxylic acid] reads 3050 nM; that for `CCc1cc2c(N3CCn4c(nnc4C(F)(F)F)C3)nc(C(=O)NCC(=O)O)nc2s1` [Example 4-4, {[6-Ethyl-4-(3-trifluoromethyl-5,6-dihydro-8H-[1,2,4]triazolo[4,3-a]pyrazin-7-yl)-thieno[2,3-d]pyrimidine-2-carbonyl]amino}acetic acid], 1000 nM; that for `CCc1cc2c(N3CCn4c(nnc4C(F)(F)F)C3)nc(C(=O)NCCO)nc2s1` [Example 4-5, 6-Ethyl-4-(3-trifluoromethyl-5,6-dihydro-8H-[1,2,4]triazolo[4,3-a]pyrazin-7-yl)thieno[2,3-d]pyrimidine-2-carboxylic acid (2-hydroxy-ethyl)amide], 1580 nM.
On to `CCCc1cc2c(N3CCn4c(nnc4C(F)(F)F)C3)nc(OCCN(CCO)C(C)=O)nc2s1` [Example 9-102, N-(2-Hydroxy-ethyl)-N-{2-[6-propyl-4-(3-trifluoromethyl-5,6-dihydro-8H-[1,2,4]triazolo[4,3-a]pyrazin-7-yl)-thieno[2,3-d]pyrimidin-2-yloxy]-ethyl}-acetamide], for which affinity in experiment [1] was put at a Ki of 8 nM.
The same measure, in the same setting: the result for `CCCc1cc2c(N3CCn4c(nnc4C(F)(F)F)C3)nc(N(C)CCC#N)nc2s1` [Example 9-103, 3-{Methyl-[6-propyl-4-(3-trifluoromethyl-5,6-dihydro-8H-[1,2,4]triazolo[4,3-a]pyrazin-7-yl)-thieno[2,3-d]pyrimidin-2-yl]-amino}-propionitrile] reads 70 nM; that for `CCCc1cc2c(N3CCn4c(nnc4C(F)(F)F)C3)nc(N(C)CCC(N)=O)nc2s1` [Example 9-104, 3-{Methyl-[6-propyl-4-(3-trifluoromethyl-5,6-dihydro-8H-[1,2,4]triazolo[4,3-a]pyrazin-7-yl)-thieno[2,3-d]pyrimidin-2-yl]-amino}-propionamide], 14 nM; that for `CCCc1cc2c(N3CCn4c(nnc4C(F)(F)F)C3)nc(OCCN3C(=O)CNC3=O)nc2s1` [Example 9-105, 3-{2-[6-Propyl-4-(3-trifluoromethyl-5,6-dihydro-8H-[1,2,4]triazolo[4,3-a]pyrazin-7-yl)-thieno[2,3-d]pyrimidin-2-yloxy]-ethyl}-imidazolidine-2,4-dione], greater than 3000 nM.
Same read-out and setting: the result for `CCCc1cc2c(N3CCn4c(nnc4C(F)(F)F)C3)nc(N(C)CCO)nc2s1` [Example 9-106, 2-{Methyl-[6-propyl-4-(3-trifluoromethyl-5,6-dihydro-8H-[1,2,4]triazolo[4,3-a]pyrazin-7-yl)-thieno[2,3-d]pyrimidin-2-yl]-amino}-ethanol] reads 140 nM; that for `CCCc1cc2c(N3CCn4c(nnc4C(F)(F)F)C3)nc(NC(=O)OC)nc2s1` [Example 9-107, [6-Propyl-4-(3-trifluoromethyl-5,6-dihydro-8H-[1,2,4]triazolo[4,3-a]pyrazin-7-yl)-thieno[2,3-d]pyrimidin-2-yl]-carbamic acid methyl ester], 170 nM.
